Here are results for two compounds from US5401733A, “Stable and active metabolites of 1,25-dihydroxy-16-ene-cholecalciferol” (Hoffmann-La Roche Inc., priority 1993, dated 1995).

Structures are written as SMILES.

Experiment [1] relates to human keratinocytes. The experiment is described as follows: Keratinocyte proliferation, assay 1 (KGM supplemented to 1.5 mM CaCl2, 5 days). The format is cell-based. Particulars: for inhibition at 0.03 µM / inhibition at 0.1 µM / inhibition at 0.3 µM / inhibition at 1 µM: Homo sapiens, Keratinocyte; for inhibition at 0.03 µM: assay 1, 0.03 μM; for inhibition at 0.1 µM: assay 1, 0.1 μM; for inhibition at 0.3 µM: assay 1, 0.3 μM; for inhibition at 1 µM: assay 1, 1.0 μM; for antiproliferative activity, assay 1 (in words): assay 1, lower doses. How it is done: (§1) Quantitation of Morphological Changes During Keratinocyte Proliferation Materials and Methods
(§2) Human neonatal foreskins were collected by circumcision and placed into tubes containing Dulbecco's Modified Eagle's Medium (DMEM) with 10% serum. On arrival at the laboratory, they were mechanically trimmed of excess dermis, and treated with a solution of trypsin/EDTA (0.05%/0.02%) at 4° C. overnight. The epidermis was stripped from the dermis, agitated in buffered saline containing soybean trypsin inhibitor to remove basal keratinocytes and the stratum cornea layer was removed. The separated cells were centrifuged, resuspended in the above media, counted, and the cells plated onto plastic culture dishes or plates at a density of 25,000 cells/cm^2 in keratinocyte growth media (KGM®-modified MCDB 153, Clonetics, Inc., Catalog #CC3001) according to protocols developed by Boyce and Ham (In Vitro Models for Cancer Research III, 246-274, 1986) for MCDB 153 media. The cultures were incubated in humidified chambers with 5% CO2 at 37° C. The cultures were refed with fresh media two to three times per week. Prior to reaching confluency the cells were replated (passage one) at 25,000 cells/well on 6-well cluster plates (Costar catalog #3506) in KGM.
(§3) 1 milligram quantities were received in amber glass vials, and stored at -20° C. Sufficient 100% ethanol was added directly to the vials to obtain a millimolar solution that was subsequently aliquoted into small amber vials, overlayed with argon gas and stored at […] Each stock solution was thawed once, used and discarded. Aliquots from the stock solutions were diluted directly into medium and then serially diluted from micromolar to 10^-12 M concentrations. Dilutions from 10^-8 M to 10^-12 M had ethanol added for a final concentration of 0.1%. Stock solutions were used within one month. Control cultures were treated with 0.1% ethanol.
(§4) Approximately 24 hours after passage one, the cells were refed with fresh KGM supplemented to 1.5 mM CaCl2 (assay 1) containing the test compound. In a second assay (assay 2), the cells were grown in KGM without calcium supplementation to stimulate more proliferation and grown for 7 days instead of 5 days. Compounds were typically tested at 4 concentrations in triplicate wells. At the termination of the experiment, prior to the cultures reaching confluency, the cells were enumerated as follows. Dishes were rinsed with phosphate buffered saline, and then incubated with trysin/EDTA solution for 15 minutes. Cells were suspended, an aliquot placed into isotonic buffered saline and counted on an electronic particle counter (Coulter Counter). The counter was periodically calibrated for the correct size of keratinocytes. Each well was counted in triplicate. The number of cells per dish were calculated according to dilution factors used and results shown below in Table 3 are presented as percent inhibition obtained in control cultures.

Experiment [2] deals with human keratinocytes. Nature of the experiment: Keratinocyte proliferation, assay 2 (KGM without calcium supplementation, 7 days). The format is cell-based. The following applies: for inhibition at 0.03 µM / inhibition at 0.1 µM / inhibition at 0.3 µM / inhibition at 1 µM: Homo sapiens, Keratinocyte, Exp. 1, read-out: Percentage Inhibition of Controls, Exp. 1; for inhibition at 0.03 µM: assay 2, 0.03 μM; for inhibition at 0.1 µM: assay 2, 0.1 μM; for inhibition at 0.3 µM: assay 2, 0.3 μM; for inhibition at 1 µM: assay 2, 1.0 μM; for antiproliferative activity, assay 2 (in words): assay 2, lower doses; for proliferation of human keratinocytes / skin cells (in words): assays 1 and 2 not distinguished; for dose response (in words): low calcium and more rapidly dividing cells. How it is done:
as §1, §2, §3, §4

Setting [3] is: Exp. 2, read-out: Percentage Inhibition of Controls, Exp. 2.
Setting [4] is: average of Exp. 1 and 2, read-out: Percentage Inhibition of Controls, Average.

In general, inhibition refers to the relative decrease from the control value, in per cent. On to `C=C1/C(=C\C=C2/CCC[C@]3(C)C([C@H](C)CCC(=O)C(C)(C)O)=CC[C@@H]23)C[C@@H](O)C[C@@H]1O` [1,25(OH)2-16-ene-24-oxo-D3, 1,25-dihydroxy-16-ene-24-oxo-cholecalciferol], for which, in experiment [1] (setting [3]), the inhibition at 0.03 µM is 82.8%, the inhibition at 0.1 µM was 108%, the inhibition at 0.3 µM was found to be 73.3% and the inhibition at 1 µM stood at 73.1%. Besides, in experiment [1] (setting [4]), the inhibition at 0.03 µM was found to be 80.1%, the inhibition at 0.1 µM was 89.1%, the inhibition at 0.3 µM is 67.8% and the inhibition at 1 µM is 68.1%. For the same compound, the “antiproliferative activity, assay 1 (in words)” value in experiment [1] is reported as “some antiproliferative activity at lower doses, although this activity is not dose dependent”. Also, in experiment [2], the inhibition at 0.03 µM is 63 ± 7.21%, the inhibition at 0.1 µM was 45.3 ± 9.48%, the inhibition at 0.3 µM is 31.1 ± 11.8% and the inhibition at 1 µM is 17.4 ± 8.13%. Further, in experiment [2], the “antiproliferative activity, assay 2 (in words)” value is reported as “strong antiproliferative activity at lower doses”; the “proliferation of human keratinocytes / skin cells (in words)” value is listed as “restrained the proliferation of skin cells”; the “dose response (in words)” value is “good dose response curve”. Besides, the “proliferation of human keratinocytes / skin cells (in words)” value in experiment [2] (listed as I) was “decrease proliferation of human keratinocytes”.
Regarding `C=C1/C(=C\C=C2/CCC[C@]3(C)C([C@H](C)CCCC(C)(C)O)=CC[C@@H]23)C[C@@H](O)C[C@@H]1O` [1,25(OH)2-16-ene-D3, 1,25-dihydroxy-16-ene-cholecalciferol], in experiment [1] (setting [3]), the inhibition at 0.03 µM turned out to be 88.4%, the inhibition at 0.1 µM amounted to 83.6%, the inhibition at 0.3 µM amounted to 89% and the inhibition at 1 µM was 57.1%. Also, in experiment [1] (setting [4]), the inhibition at 0.03 µM turned out to be 89.8%, the inhibition at 0.1 µM came out at 82.3%, the inhibition at 0.3 µM came out at 84.5% and the inhibition at 1 µM was determined as 58.5%. Moreover, the “antiproliferative activity, assay 1 (in words)” value in experiment [1] is listed as “some antiproliferative activity at lower doses, although this activity is not dose dependent”. In experiment [2], the inhibition at 0.03 µM came to 75.6 ± 3.35%, the inhibition at 0.1 µM came to 56.2 ± 5.7%, the inhibition at 0.3 µM was determined as 36 ± 10.3% and the inhibition at 1 µM worked out at 22.4 ± 8.55%. Moreover, in experiment [2], the “antiproliferative activity, assay 2 (in words)” value was “strong antiproliferative activity at lower doses” and the “dose response (in words)” value is “good dose response curve”.
